# Measurements published in patent US20230087865A1, “PHARMACEUTICAL COMPOSITION FOR ORAL ADMINISTRATION” (HK INNO. N CORPORATION, priority 2020, published 2023).
# Structures can show the parent of a compound that is named as a salt.
# Experiment: Evaluation of compatibility between tegoprazan and clopidogrel sulfate (2 weeks, HDPE bottle)
# Type: physicochemical
# Settings: for content, component in mixture: mixture of tegoprazan and clopidogrel sulfate
# Experimental: Example 1. Evaluation of Compatibility Between Tegoprazan and Clopidogrel Sulfate
# According to Table 1 above, in order to examine the effect of each of tegoprazan and clopidogrel hydrogen sulfate, compatibility therebetween was evaluated under storage conditions according to the ICH guideline recommendations and drug safety test regulations.
# It was shown that, when the two components came into direct contact with each other under each storage condition, the contents of the two components decreased.
# [1] = 2 weeks, Accelerated conditions (40° C./RH 75 ± 5%)
# [2] = 2 weeks, Stressed conditions (60° C./RH 75 ± 5%)
"content, component alone [1] [%]","content, component alone [2] [%]","content, component alone (Initial (room temperature)) [%]","content, component in mixture [1] [%]","content, component in mixture [2] [%]","content, component in mixture (Initial (room temperature)) [%]",Structure (SMILES)
101.1,98.3,100.2,78.9,49.0,100.3,"COC(=O)[C@H](c1ccccc1Cl)N1CCc2sccc2C1 [Clopidogrel sulfate, methyl (+)-(S)-α-(2-chlorophenyl)-6,7-dihydrothieno[3,2-c]pyridine-5(4H)-acetate]"
100.3,99.1,99.8,92.0,10.5,99.7,"Cc1nc2cc(C(=O)N(C)C)cc(O[C@H]3CCOc4cc(F)cc(F)c43)c2[nH]1 [Tegoprazan, (S)-4-((5,7-difluorochroman-4-yl)oxy)-N,N,2-trimethyl-1H-benzo[d]imidazole-6-carboxamide]"
